Our source for the EC50 values is patent US12281119B2, “Imidazo[2,1-f][1,2,4]triazin-4-amine derivatives as TLR7 agonist” (BEIGENE, LTD., priority 2019, dated 2025).

As a reminder, the EC50 is the midpoint of the concentration-response curve. High values mean weaker potency, low ones greater potency.

Each structure is given as a SMILES string. Bounds are passed on as bounds.

The experiment has as its target T1, human TLR7 (Homo sapiens, UniProt Q9NYK1).
T1 sequence (Q9NYK1 27-1049): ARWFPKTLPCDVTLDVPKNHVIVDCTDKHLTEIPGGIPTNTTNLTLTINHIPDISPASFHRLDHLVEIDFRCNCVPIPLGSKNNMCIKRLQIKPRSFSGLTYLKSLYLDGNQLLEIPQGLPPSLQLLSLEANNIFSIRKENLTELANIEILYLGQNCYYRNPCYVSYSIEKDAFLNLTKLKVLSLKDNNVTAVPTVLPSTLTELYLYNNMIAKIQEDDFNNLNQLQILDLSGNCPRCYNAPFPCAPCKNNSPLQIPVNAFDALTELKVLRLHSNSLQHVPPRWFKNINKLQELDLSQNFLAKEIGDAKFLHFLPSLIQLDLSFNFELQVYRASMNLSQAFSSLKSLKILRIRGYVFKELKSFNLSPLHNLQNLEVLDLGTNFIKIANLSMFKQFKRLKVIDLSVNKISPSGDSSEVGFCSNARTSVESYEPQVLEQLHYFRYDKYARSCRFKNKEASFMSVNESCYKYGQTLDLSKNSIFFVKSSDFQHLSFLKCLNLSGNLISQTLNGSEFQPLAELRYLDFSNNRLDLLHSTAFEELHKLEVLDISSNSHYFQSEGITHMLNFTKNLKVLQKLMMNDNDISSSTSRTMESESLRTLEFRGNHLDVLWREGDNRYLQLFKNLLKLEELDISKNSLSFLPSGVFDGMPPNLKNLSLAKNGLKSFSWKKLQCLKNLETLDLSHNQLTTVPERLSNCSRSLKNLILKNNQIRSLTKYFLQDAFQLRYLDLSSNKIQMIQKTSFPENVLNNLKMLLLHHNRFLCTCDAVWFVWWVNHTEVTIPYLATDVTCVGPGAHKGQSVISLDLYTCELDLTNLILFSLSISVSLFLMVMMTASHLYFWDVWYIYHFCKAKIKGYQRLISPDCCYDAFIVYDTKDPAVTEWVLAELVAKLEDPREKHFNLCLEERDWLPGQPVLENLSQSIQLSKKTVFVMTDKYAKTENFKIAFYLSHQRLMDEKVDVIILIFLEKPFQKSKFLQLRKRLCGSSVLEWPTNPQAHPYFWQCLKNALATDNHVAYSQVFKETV
The experiment can be described thus: HEK293-Blue hTLR7 reporter assay (QUANTI-BLUE, SEAP readout). Also on record: host or cells: HEK293 (HEK-Blue-hTLR7). It is filed as cell-based. The following applies: HEK-Blue-hTLR7 cells, QUANTI-BLUE assay (A1-A76), 24 hrs. As to the method:
HEK293-Blue hTLR7 Reporter Assay:
HEK-Blue-hTLR7 cell line (Invivogen, Cat. No. hkb-htlr7) was designed so that the expression of the secreted embryonic alkaline phosphatase (SEAP) was induced by activating NF-κ and AP-1 via stimulating human TLR7 with TLR7 agonists.
HEK-Blue-hTLR7 cells were seeded at a density of 4×10^4 cells/well in a volume of 180 μL in a 96-well plate in DMEM (Cat. No. 11965-092) supplemented with 10% (v/v) heat-inactivated fetal bovine serum (FBS) (Gibco, 10099-1441), 100 U/ml penicillin and 100 μg/ml streptomycin (Gibco, 15140122) containing […], […] and 10% (v/v) heat-inactivated fetal bovine serum. The cells were settled for 5 hrs, then treated with increasing amounts of tested compounds at 37° C. for 24 hrs. Then 20 μL of the supernatant from each well was incubated with 180 uL Quanti-blue substrate solution at 37° C. for 10-30 mins before the activity of the SEAP was determined at 620-655 nm using a spectrophotometer. The EC50 value for each compound was calculated with GraphPad Prism software using the sigmoidal dose-response function.
On the technique in general: In a reporter assay the amount or activity of a reporter protein is the signal.
Turning to `CCCCOc1nc(N)c2ncc(Cc3ccc(CN4CCCC4)cc3)n2n1` [Compound A1, 2-butoxy-7-(4-(pyrrolidin-1-ylmethyl)benzyl)imidazo[2,1-f][1,2,4]triazin-4-amine], the EC50 was determined as 0.9 µM. `CCCCOc1nc(N)c2ncc(Cc3ccc(OCCCN(C)C)cc3)n2n1` [Compound A2, 2-butoxy-7-(4-(3-(dimethylamino)propoxy)benzyl)imidazo[2,1-f][1,2,4]triazin-4-amine]: the EC50 turned out to be 0.92 µM. `CCCCOc1nc(N)c2ncc(Cc3ccc(CN4CCOCC4)cc3)n2n1` [Compound A3, 2-butoxy-7-(4-(morpholinomethyl)benzyl)imidazo[2,1-f][1,2,4]triazin-4-amine] registered a concentration for a half-maximal effect (EC50) of over 10 µM.

In turn, `CCCCOc1nc(N)c2ncc(Cc3ccc(N(C)CCN(C)C)nc3)n2n1` [Compound A4, N^1-(5-((4-amino-2-butoxyimidazo[2,1-f][1,2,4]triazin-7-yl)methyl)pyridin-2-yl)-N^1,N^2,N^2-trimethylethane-1,2-diamine] gave an EC50 of 1.85 µM. Consider `CCCCOc1nc(N)c2ncc(Cc3ccc(CN4CCCCC4)cc3)n2n1` [Compound A5, 2-butoxy-7-(4-(piperidin-1-ylmethyl)benzyl)imidazo[2,1-f][1,2,4]triazin-4-amine], for which the EC50 came to 1.27 µM. The same measure for `CCCCOc1nc(N)c2ncc(Cc3ccc(CN4CCN(C)CC4)cc3)n2n1` [Compound A6, 2-butoxy-7-(4-((4-methylpiperazin-1-yl)methyl)benzyl)imidazo[2,1-f][1,2,4]triazin-4-amine]: 1.51 µM; for `CCCCOc1nc(N)c2ncc(Cc3cccc(CN4CCCCC4)c3)n2n1` [Compound A7, 2-butoxy-7-(3-(piperidin-1-ylmethyl)benzyl)imidazo[2,1-f][1,2,4]triazin-4-amine]: over 10 µM. In the case of `CCCCOc1nc(N)c2ncc(Cc3ccc4c(c3)CN(C(C)C)CC4)n2n1` [Compound A9, 2-butoxy-7-((2-isopropyl-1,2,3,4-tetrahydroisoquinolin-7-yl)methyl)imidazo[2,1-f][1,2,4]triazin-4-amine], the EC50 is over 10 µM. For the compound `CCCCOc1nc(N)c2ncc(Cc3cccc(CN4CCCC4)c3)n2n1` [Compound A11, 2-butoxy-7-(3-(pyrrolidin-1-ylmethyl)benzyl)imidazo[2,1-f][1,2,4]triazin-4-amine], the EC50 is over 10 µM. Consider `CCCCOc1nc(N)c2ncc(Cc3cccc(CN4CCOCC4)c3)n2n1` [Compound A12, 2-butoxy-7-(3-(morpholinomethyl)benzyl)imidazo[2,1-f][1,2,4]triazin-4-amine], for which the EC50 was over 10 µM. As for `CCCCOc1nc(N)c2ncc(Cc3cccc(CN4CCN(C)CC4)c3)n2n1` [Compound A13, 2-butoxy-7-(3-((4-methylpiperazin-1-yl)methyl)benzyl)imidazo[2,1-f][1,2,4]triazin-4-amine], the EC50 was over 10 µM.

Compound `CCCCOc1nc(N)c2ncc(Cc3ccccc3CN3CCOCC3)n2n1` [Compound A14, 2-butoxy-7-(2-(morpholinomethyl)benzyl)imidazo[2,1-f][1,2,4]triazin-4-amine] registered an EC50 of over 10 µM. Regarding `CCCCOc1nc(N)c2ncc(Cc3ccccc3CN3CCCCC3)n2n1` [Compound A15, 2-butoxy-7-(2-(piperidin-1-ylmethyl)benzyl)imidazo[2,1-f][1,2,4]triazin-4-amine], the EC50 is over 10 µM. Turning to `CC(C)COc1nc(N)c2ncc(Cc3cccc(CN4CCCC4)c3)n2n1` [Compound A16, 2-isobutoxy-7-(3-(pyrrolidin-1-ylmethyl)benzyl)imidazo[2,1-f][1,2,4]triazin-4-amine], the EC50 was over 10 µM.

In the case of `COCCOc1nc(N)c2ncc(Cc3cccc(CN4CCCC4)c3)n2n1` [Compound A17, 2-(2-methoxyethoxy)-7-(3-(pyrrolidin-1-ylmethyl)benzyl)imidazo[2,1-f][1,2,4]triazin-4-amine], the concentration giving a half-maximal response (EC50) is over 10 µM. The same measure for `Nc1nc(OCCCC(F)(F)F)nn2c(Cc3cccc(CN4CCCC4)c3)cnc12` [Compound A18, 7-(3-(pyrrolidin-1-ylmethyl)benzyl)-2-(4,4,4-trifluorobutoxy)imidazo[2,1-f][1,2,4]triazin-4-amine]: over 10 µM; for `CCCCOc1nc(N)c2ncc(Cc3ccccc3CN3CCCC3)n2n1` [Compound A19, 2-butoxy-7-(2-(pyrrolidin-1-ylmethyl)benzyl)imidazo[2,1-f][1,2,4]triazin-4-amine]: over 10 µM; for `CCCCOc1nc(N)c2ncc(Cc3ccc(CN4CCCC4)cc3F)n2n1` [Compound A20, 2-butoxy-7-(2-fluoro-4-(pyrrolidin-1-ylmethyl)benzyl)imidazo[2,1-f][1,2,4]triazin-4-amine]: 1.75 µM. In turn, `CCCCOc1nc(N)c2ncc(Cc3ccc(OCCCN4CCCCC4)cc3)n2n1` [Compound A21, 2-butoxy-7-(4-(3-(piperidin-1-yl)propoxy)benzyl)imidazo[2,1-f][1,2,4]triazin-4-amine] showed an EC50 of 2.87 µM. With `CCCCOc1nc(N)c2ncc(Cc3ccc(OCCCN4CCOCC4)cc3)n2n1` [Compound A22, 2-butoxy-7-(4-(3-morpholinopropoxy)benzyl)imidazo[2,1-f][1,2,4]triazin-4-amine], the half-maximal effective concentration (EC50) is 5.71 µM. Compound `CCCCOc1nc(N)c2ncc(Cc3cccc(OCCCN(C)C)c3)n2n1` [Compound A23, 2-butoxy-7-(3-(3(dimethylamino)propoxy)benzyl)imidazo[2,1-f][1,2,4]triazin-4-amine] returned a 50% effective concentration (EC50) of over 10 µM. The compound `CCCCOc1nc(N)c2ncc(Cc3ccc(F)c(OCCCN(C)C)c3)n2n1` [Compound A24, 2-butoxy-7-(3-(3-(dimethylamino)propoxy)-4-fluorobenzyl)imidazo[2,1-f][1,2,4]triazin-4-amine] yielded an EC50 of over 10 µM.

On to `CCCCOc1nc(N)c2ncc(Cc3cccc(-c4ccc(CN5CCCC5)cc4)c3)n2n1` [Compound A25, 2-butoxy-7-((4′-(pyrrolidin-1-ylmethyl)-[1,1′-biphenyl]-3-yl)methyl)imidazo[2,1-f][1,2,4]triazin-4-amine], for which the EC50 is over 10 µM.

`CCCCOc1nc(N)c2ncc(Cc3cc(CN4CCCC4)ccc3F)n2n1` [Compound A26, 2-butoxy-7-(2-fluoro-5-(pyrrolidin-1-ylmethyl)benzyl)Imidazo[2,1-f][1,2,4]triazin-4-amine]: the 50% effective concentration (EC50) was over 10 µM.

In turn, `CCCCOc1nc(N)c2ncc(Cc3ccccc3OCCCN(C)C)n2n1` [Compound A27, 2-butoxy-7-(2-(3-(dimethylamino)propoxy)benzyl)imidazo[2,1-f][1,2,4]triazin-4-amine] registered an EC50 of over 10 µM.

The compound `CCCCOc1nc(N)c2ncc(Cc3ccc(OCCCN4CCCC4)cc3)n2n1` [Compound A28, 2-butoxy-7-(4-(3-(pyrrolidin-1-yl)propoxy)benzyl)imidazo[2,1-f][1,2,4]triazin-4-amine] came in with an EC50 of 1.79 µM. The value for `CCCCOc1nc(N)c2ncc(Cc3ccc(OCCCN(CC)CC)cc3)n2n1` [Compound A29, 2-butoxy-7-(4-(3-(diethylamino)propoxy)benzyl)imidazo[2,1-f][1,2,4]triazin-4-amine] was 2.6 µM.

Compound `CCCCOc1nc(N)c2ncc(Cc3ccc(-c4ccc(CN5CCCC5)cc4)cc3)n2n1` [Compound A30, 2-butoxy-7-((4′-(pyrrolidin-1-ylmethyl)-[1,1′-biphenyl]-4-yl)methyl)imidazo[2,1-f][1,2,4]triazin-4-amine] displayed a concentration giving a half-maximal response (EC50) of 3.52 µM. `CCCCOc1nc(N)c2ncc(Cc3ccc(OCCCN)cc3)n2n1` [Compound A31, 7-(4-(3-aminopropoxy)benzyl)-2-butoxyimidazo[2,1-f][1,2,4]triazin-4-amine]: the 50% effective concentration (EC50) was over 10 µM. The same measure for `CCCCOc1nc(N)c2ncc(Cc3ccc(OCCCN(C)C)nc3)n2n1` [Compound A32, 2-butoxy-7-((6-(3-(dimethylamino)propoxy)pyridin-3-yl)methyl)imidazo[2,1-f][1,2,4]triazin-4-amine]: 0.861 µM.
